According to paper PMC8037182, “Solvothermal Synthesis of Multiple Dihydropyrimidinones at a Time as Inhibitors of Eg5” (Molecules, 2021):

Tested on: L929 cell line
Test: Cytotoxicity MTS assay, L929 cell line
Type: cell-based
Settings: for OD490 values, Mean / OD490 values, Well 1 / OD490 values, Well 2 / OD490 values, Well 3: L929 cell line; for IC50: MTS assay, 24 h exposure, ordinary fibroblast, not cancer cells
Method: The positive compounds (IC50 < 100 μM) obtained from the primary Eg5 motor protein ATPase assay were tested for antiproliferative activity in vitro against Caco-2 cell line, Hela cell line, L929 cell line and T24 cell line by performing MTS assay. Cells were introduced into 96-well plates at a density of 1000 cells per well. After 24 h incubation, the cells were exposed with compounds at final concentrations ranging from 0.5 to 100 µM for 24 h. DMSO was used at a final concentration of 0.025% as blank control, monastrol was used as the positive control. Then 20 µL (CellTiter 96® AQueous One Solution Promega, Madison, WI, USA) reagent was added in each well. After 2 h at 37 °C in a 80% humidified, 5% CO2 atmosphere, the absorbance at 490 nm was recorded using a microplate reader (BIO-RAD iMark^TM). The results were obtained in three independent duplicate experiments. The primary data were shown in Supplementary Materials Tables S4–S7. The IC50 values for these compounds were calculated from a non-linear regression graph plotted between the percentage of cell viability and concentration with SPSS17.0 software.

CCOc1ccccc1C1NC(=S)NC(C)=C1C(=O)Nc1ccc(Cl)cc1 (centres unmarked) [C9]
OD490 values, Mean (0.5μM, first assay): 1.3120
OD490 values, Well 1 (0.5μM, first assay): 1.2051
OD490 values, Well 2 (0.5μM, first assay): 1.4334
OD490 values, Well 3 (0.5μM, first assay): 1.2976
OD490 values, Mean (0.5μM, second assay): 1.7414
OD490 values, Well 1 (0.5μM, second assay): 1.7956
OD490 values, Well 2 (0.5μM, second assay): 1.7365
OD490 values, Well 3 (0.5μM, second assay): 1.6920
OD490 values, Mean (0.5μM, third assay): 1.5324
OD490 values, Well 1 (0.5μM, third assay): 1.5628
OD490 values, Well 2 (0.5μM, third assay): 1.4792
OD490 values, Well 3 (0.5μM, third assay): 1.5552
OD490 values, Mean (1μM, first assay): 1.2882
OD490 values, Well 1 (1μM, first assay): 1.1921
OD490 values, Well 2 (1μM, first assay): 1.2906
OD490 values, Well 3 (1μM, first assay): 1.3820
OD490 values, Mean (1μM, second assay): 1.7491
OD490 values, Well 1 (1μM, second assay): 1.7526
OD490 values, Well 2 (1μM, second assay): 1.7963
OD490 values, Well 3 (1μM, second assay): 1.6985
OD490 values, Mean (1μM, third assay): 1.5501
OD490 values, Well 1 (1μM, third assay): 1.5147
OD490 values, Well 2 (1μM, third assay): 1.6354
OD490 values, Well 3 (1μM, third assay): 1.5001
OD490 values, Mean (10μM, first assay): 1.2539
OD490 values, Well 1 (10μM, first assay): 1.1842
OD490 values, Well 2 (10μM, first assay): 1.1521
OD490 values, Well 3 (10μM, first assay): 1.4254
OD490 values, Mean (10μM, second assay): 1.6826
OD490 values, Well 1 (10μM, second assay): 1.6658
OD490 values, Well 2 (10μM, second assay): 1.5966
OD490 values, Well 3 (10μM, second assay): 1.7854
OD490 values, Mean (10μM, third assay): 1.5957
OD490 values, Well 1 (10μM, third assay): 1.5987
OD490 values, Well 2 (10μM, third assay): 1.6038
OD490 values, Well 3 (10μM, third assay): 1.5847
OD490 values, Mean (25μM, first assay): 1.1905
OD490 values, Well 1 (25μM, first assay): 1.1608
OD490 values, Well 2 (25μM, first assay): 1.2406
OD490 values, Well 3 (25μM, first assay): 1.1701
OD490 values, Mean (25μM, second assay): 1.4962
OD490 values, Well 1 (25μM, second assay): 1.4563
OD490 values, Well 2 (25μM, second assay): 1.5624
OD490 values, Well 3 (25μM, second assay): 1.4698
OD490 values, Mean (25μM, third assay): 1.3392
OD490 values, Well 1 (25μM, third assay): 1.3256
OD490 values, Well 2 (25μM, third assay): 1.3332
OD490 values, Well 3 (25μM, third assay): 1.3587
OD490 values, Mean (50μM, first assay): 1.0589
OD490 values, Well 1 (50μM, first assay): 1.0389
OD490 values, Well 2 (50μM, first assay): 1.0906
OD490 values, Well 3 (50μM, first assay): 1.0471
OD490 values, Mean (50μM, second assay): 1.2280
OD490 values, Well 1 (50μM, second assay): 1.2236
OD490 values, Well 2 (50μM, second assay): 1.2635
OD490 values, Well 3 (50μM, second assay): 1.1968
OD490 values, Mean (50μM, third assay): 1.1793
OD490 values, Well 1 (50μM, third assay): 1.1416
OD490 values, Well 2 (50μM, third assay): 1.2010
OD490 values, Well 3 (50μM, third assay): 1.1952
OD490 values, Mean (100μM, first assay): 0.6738
OD490 values, Well 1 (100μM, first assay): 0.6518
OD490 values, Well 2 (100μM, first assay): 0.6916
OD490 values, Well 3 (100μM, first assay): 0.6781
OD490 values, Mean (100μM, second assay): 0.7959
OD490 values, Well 1 (100μM, second assay): 0.7856
OD490 values, Well 2 (100μM, second assay): 0.7958
OD490 values, Well 3 (100μM, second assay): 0.8062
OD490 values, Mean (100μM, third assay): 0.7698
OD490 values, Well 1 (100μM, third assay): 0.8020
OD490 values, Well 2 (100μM, third assay): 0.7321
OD490 values, Well 3 (100μM, third assay): 0.7754
IC50 (Mus musculus, L929): 86 µM

CCOC(=O)c1c(C2NC(=O)NC(C)=C2C(=O)Nc2ccccc2OC)[nH]c(C(=O)OC)c1C (centres unmarked) [D1]
OD490 values, Mean (0.5μM, first assay): 1.3706
OD490 values, Well 1 (0.5μM, first assay): 1.4101
OD490 values, Well 2 (0.5μM, first assay): 1.3370
OD490 values, Well 3 (0.5μM, first assay): 1.3648
OD490 values, Mean (0.5μM, second assay): 1.7900
OD490 values, Well 1 (0.5μM, second assay): 1.7354
OD490 values, Well 2 (0.5μM, second assay): 1.9532
OD490 values, Well 3 (0.5μM, second assay): 1.6814
OD490 values, Mean (0.5μM, third assay): 1.6902
OD490 values, Well 1 (0.5μM, third assay): 1.6425
OD490 values, Well 2 (0.5μM, third assay): 1.7433
OD490 values, Well 3 (0.5μM, third assay): 1.6847
OD490 values, Mean (1μM, first assay): 1.3549
OD490 values, Well 1 (1μM, first assay): 1.3334
OD490 values, Well 2 (1μM, first assay): 1.3850
OD490 values, Well 3 (1μM, first assay): 1.3462
OD490 values, Mean (1μM, second assay): 1.7547
OD490 values, Well 1 (1μM, second assay): 1.7965
OD490 values, Well 2 (1μM, second assay): 1.7320
OD490 values, Well 3 (1μM, second assay): 1.7355
OD490 values, Mean (1μM, third assay): 1.7249
OD490 values, Well 1 (1μM, third assay): 1.7365
OD490 values, Well 2 (1μM, third assay): 1.7452
OD490 values, Well 3 (1μM, third assay): 1.6930
OD490 values, Mean (10μM, first assay): 1.3153
OD490 values, Well 1 (10μM, first assay): 1.3870
OD490 values, Well 2 (10μM, first assay): 1.3090
OD490 values, Well 3 (10μM, first assay): 1.2498
OD490 values, Mean (10μM, second assay): 1.7648
OD490 values, Well 1 (10μM, second assay): 1.6895
OD490 values, Well 2 (10μM, second assay): 1.7985
OD490 values, Well 3 (10μM, second assay): 1.8063
OD490 values, Mean (10μM, third assay): 1.7158
OD490 values, Well 1 (10μM, third assay): 1.7235
OD490 values, Well 2 (10μM, third assay): 1.7253
OD490 values, Well 3 (10μM, third assay): 1.6985
OD490 values, Mean (25μM, first assay): 1.2680
OD490 values, Well 1 (25μM, first assay): 1.2444
OD490 values, Well 2 (25μM, first assay): 1.2849
OD490 values, Well 3 (25μM, first assay): 1.2747
OD490 values, Mean (25μM, second assay): 1.6159
OD490 values, Well 1 (25μM, second assay): 1.6525
OD490 values, Well 2 (25μM, second assay): 1.5652
OD490 values, Well 3 (25μM, second assay): 1.6301
OD490 values, Mean (25μM, third assay): 1.4383
OD490 values, Well 1 (25μM, third assay): 1.5307
OD490 values, Well 2 (25μM, third assay): 1.3321
OD490 values, Well 3 (25μM, third assay): 1.4521
OD490 values, Mean (50μM, first assay): 1.2064
OD490 values, Well 1 (50μM, first assay): 1.2251
OD490 values, Well 2 (50μM, first assay): 1.1315
OD490 values, Well 3 (50μM, first assay): 1.2627
OD490 values, Mean (50μM, second assay): 1.4454
OD490 values, Well 1 (50μM, second assay): 1.4685
OD490 values, Well 2 (50μM, second assay): 1.3855
OD490 values, Well 3 (50μM, second assay): 1.4822
OD490 values, Mean (50μM, third assay): 1.3084
OD490 values, Well 1 (50μM, third assay): 1.3124
OD490 values, Well 2 (50μM, third assay): 1.3165
OD490 values, Well 3 (50μM, third assay): 1.2962
OD490 values, Mean (100μM, first assay): 1.1038
OD490 values, Well 1 (100μM, first assay): 1.1234
OD490 values, Well 2 (100μM, first assay): 1.0461
OD490 values, Well 3 (100μM, first assay): 1.1419
OD490 values, Mean (100μM, second assay): 1.2865
OD490 values, Well 1 (100μM, second assay): 1.2022
OD490 values, Well 2 (100μM, second assay): 1.2699
OD490 values, Well 3 (100μM, second assay): 1.3874
OD490 values, Mean (100μM, third assay): 1.3217
OD490 values, Well 1 (100μM, third assay): 1.4554
OD490 values, Well 2 (100μM, third assay): 1.2165
OD490 values, Well 3 (100μM, third assay): 1.2933
IC50: 125 µM
